Reference: the supplement of paper PMC11061612

Assays:
Experiment in all cases: Bliss excess, mean over the matrix (fraction); higher = more synergy
[1] = tested on: CAMA-1 (Breast Carcinoma)
Outline: (§1)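 Bliss excess equals the observed combination effect minus the expected value EA + EB − EA·EB, where EA and EB are the effects of each agent alone. Combination Emax is the second-highest inhibition within the matrix. Inhibition was scaled from CellTiter-Glo 2.0 luminescence, with 0 set by vehicle wells and 1 by blank wells, after 72 hours of two-drug dosing of cells plated in 1536-well plates.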

[2] = tested on: SU-DHL-8 (B-Cell Non-Hodgkin's Lymphoma)
Outline: as §1

[3] = tested on: PANC-08-13 (Pancreatic Carcinoma)
Outline: as §1

TC-71 (Ewing's Sarcoma) = tested on: TC-71 (Ewing's Sarcoma)
Outline: as §1

[4] = tested on: DND-41 (T-Lymphoblastic Leukemia)
Outline: as §1

[5] = tested on: MKN28 (Gastric Carcinoma)
Outline: as §1

[6] = tested on: TE-6 (Esophageal Squamous Cell Carcinoma)
Outline: as §1

ES1 (Ewing's Sarcoma) = tested on: ES1 (Ewing's Sarcoma)
Outline: as §1

[7] = tested on: NCI-H1792 (Lung Adenocarcinoma)
Outline: as §1

[8] = tested on: K-562 (Chronic Myelogenous Leukemia)
Outline: as §1

[9] = tested on: L-540 (Hodgkin's Lymphoma)
Outline: as §1

[10] = tested on: HDQ-P1 (Breast Carcinoma)
Outline: as §1

[11] = tested on: BFTC-905 (Bladder Carcinoma)
Outline: as §1

WIL2-NS (Non-Cancerous) = tested on: WIL2-NS (Non-Cancerous)
Outline: as §1

U251 (Low Grade Glioma) = tested on: U251 (Low Grade Glioma)
Outline: as §1

[12] = tested on: KYSE-180 (Esophageal Squamous Cell Carcinoma)
Outline: as §1

[13] = tested on: NCI-H847 (Small Cell Lung Carcinoma)
Outline: as §1

CHP-212 (Neuroblastoma) = tested on: CHP-212 (Neuroblastoma)
Outline: as §1

[14] = tested on: MFM-223 (Breast Carcinoma)
Outline: as §1

[15] = tested on: KM12 (Colorectal Carcinoma)
Outline: as §1

Compound | Bliss excess [1] | Bliss excess [2] | Bliss excess [3] | Bliss excess (TC-71 (Ewing's Sarcoma)) | Bliss excess [4] | Bliss excess [5] | Bliss excess [6] | Bliss excess (ES1 (Ewing's Sarcoma)) | Bliss excess [7] | Bliss excess [8] | Bliss excess [9] | Bliss excess [10] | Bliss excess [11] | Bliss excess (WIL2-NS (Non-Cancerous)) | Bliss excess (U251 (Low Grade Glioma)) | Bliss excess [12] | Bliss excess [13] | Bliss excess (CHP-212 (Neuroblastoma)) | Bliss excess [14] | Bliss excess [15]
CN(C)CCCOc1ccc(-c2ccc3ncc4c(c3c2)n(C2CCOCC2)c(=O)n4C)cn1 [AZD0156] + C=CCn1c(=O)c2cnc(Nc3ccc(N4CCN(C)CC4)cc3)nc2n1-c1cccc(C(C)(C)O)n1 [AZD1775] (first compound max 1 µM, partner max 1 µM) | -0.0726 | 0.0032 | -0.0586 | 0.0685 | -0.0029 | -0.0875 | -0.045 | -0.0018 | -0.0041 | -0.0269 | 0.0604 | 0.0118 | -0.0022 | 0.0135 | 0.005 | -0.0451 | -0.0114 | -0.0165 | -0.0282 | -0.0223
CN(C)CCCOc1ccc(-c2ccc3ncc4c(c3c2)n(C2CCOCC2)c(=O)n4C)cn1 [AZD0156] + CCN(CCO)CCCOc1ccc2c(Nc3cc(CC(=O)Nc4cccc(F)c4)[nH]n3)ncnc2c1 [AZD2811] (first compound max 1 µM, 7x7, partner max 1 µM) | -0.0318 | 0.0377 | -0.0461 | 0.0495 | 0.0072 | -0.0295 | 0.0127 | 0.148 | -0.0032 | -0.0011 | 0.0074 | -0.0634 | 0.0116 | -0.003 | 0.0131 | -0.0153 | -0.0122 | -0.0254 | 0.0113 | -0.0163
CN(C)CCCOc1ccc(-c2ccc3ncc4c(c3c2)n(C2CCOCC2)c(=O)n4C)cn1 [AZD0156] + C[C@@H]1COCCN1C2=NC(=NC(=C2)C3(CC3)[S@](=N)(=O)C)C4=C5C=CNC5=NC=C4 [AZD6738] (first compound max 1 µM, 7x7, partner max 10 µM) | -0.0444 | 0.0169 | -0.0376 | 0.069 | -0.0034 | -0.0092 | 0.0225 | 0.0554 | 0.0254 | -0.0079 | -0.0163 | 0.0214 | 0.0463 | 0.0131 | -0.0087 | 0.0762 | -0.0116 | -0.0047 | 0.0432 | 0.0161
COc1cc2ncnc(Nc3ccc(F)c(Cl)c3)c2cc1OCCCN1CCOCC1 [Gefitinib] + CC(C)n1c(=O)n(C)c2cnc3cc(F)c(-c4ccc(OCCCN5CCCCC5)nc4)cc3c21 [AZD1390] (first compound max 10 µM, 7x7, partner max 0.3 µM) | -0.0434 | -0.0157 | -0.0511 | -0.0927 | -0.0309 | -0.0498 | -0.117 | -0.0432 | -0.0422 | -0.0304 | -0.0591 | -0.114 | -0.0821 | -0.0241 | -0.0624 | -0.0621 | – | -0.0352 | -0.0681 | -0.0406
CS(=O)(=O)CCNCc1ccc(-c2ccc3ncnc(Nc4ccc(OCc5cccc(F)c5)c(Cl)c4)c3c2)o1 [Lapatinib] + C[C@@H](Oc1cc(-c2cnn(C3CCNCC3)c2)cnc1N)c1c(Cl)ccc(F)c1Cl [Crizotinib] (first compound max 10 µM, 7x7, partner max 10 µM) | -0.0178 | 0.0546 | -0.0246 | -0.0079 | -0.0272 | -0.0477 | -0.0111 | -0.0346 | -0.0342 | -0.0453 | -0.0731 | -0.0144 | -0.0525 | -0.0273 | -0.0586 | 0.0476 | – | -0.0741 | 0.0148 | -0.0327
CC(=O)c1c(C)c2cnc(Nc3ccc(N4CCNCC4)cn3)nc2n(C2CCCC2)c1=O [Palbociclib] + CC1(C)CCC(CN2CCN(c3ccc(C(=O)NS(=O)(=O)c4ccc(NCC5CCOCC5)c([N+](=O)[O-])c4)c(Oc4cnc5[nH]ccc5c4)c3)CC2)=C(c2ccc(Cl)cc2)C1 [Venetoclax] (first compound max 10 µM, 7x7, partner max 1 µM) | -0.0381 | -0.0096 | -0.0361 | -0.0129 | -0.0292 | -0.0461 | -0.0255 | -0.0214 | -0.0103 | -0.0313 | -0.0852 | -0.0555 | -0.046 | 0.0278 | -0.0348 | -0.012 | – | 0.023 | 0.0031 | -0.0041
CC(=O)c1c(C)c2cnc(Nc3ccc(N4CCNCC4)cn3)nc2n(C2CCCC2)c1=O [Palbociclib] + Cc1c2c(nn1C)CSCc1cc(n(C)n1)CSc1cc(c3ccccc3c1)OCCCc1c(C(=O)O)n(C)c3c-2c(Cl)ccc13 [AZD5991] (first compound max 10 µM, 7x7, partner max 1 µM) | -0.0525 | -0.22 | -0.0427 | -0.0182 | 0.0043 | -0.0385 | -0.0272 | -0.0169 | -0.0186 | -0.0141 | -0.0063 | -0.0396 | -0.0167 | -0.0608 | -0.0479 | -0.0602 | – | 0.0199 | -0.0784 | -0.0194
CC(=O)c1c(C)c2cnc(Nc3ccc(N4CCNCC4)cn3)nc2n(C2CCCC2)c1=O [Palbociclib] + Cn1cnc2c(F)c(Nc3ccc(Br)cc3Cl)c(C(=O)NOCCO)cc21 [Selumetinib] (first compound max 10 µM, 7x7, partner max 10 µM) | -0.027 | 0.0147 | -0.0053 | -0.012 | 0.0601 | 0.0275 | 0.0172 | -0.0366 | 0.119 | 0.0221 | -0.071 | -0.0555 | 0.0595 | -0.0133 | -0.0013 | -0.0135 | – | -0.0313 | 0.0341 | 0.0039
CCc1c2c(nc3ccc(O)cc13)-c1cc3c(c(=O)n1C2)COC(=O)[C@]3(O)CC [SN-38] + O=C(c1cc(Cc2n[nH]c(=O)c3ccccc23)ccc1F)N1CCN(C(=O)C2CC2)CC1 [Olaparib] (first compound max 0.3 µM, 7x7, partner max 10 µM) | 0.0287 | – | -0.0202 | – | 0.0343 | 0.0385 | – | 0.0779 | 0.0361 | 0.0222 | 0.0196 | 0.025 | 0.0451 | 0.0736 | – | 0.0458 | 0.0304 | – | 0.0054 | -0.0102
C[C@@H](c1ccc2nccn2c1)n1nnc2ncc(-c3cnn(C)c3)nc21 [Savolitinib] + CC1(C)CCC(CN2CCN(c3ccc(C(=O)NS(=O)(=O)c4ccc(NCC5CCOCC5)c([N+](=O)[O-])c4)c(Oc4cnc5[nH]ccc5c4)c3)CC2)=C(c2ccc(Cl)cc2)C1 [Venetoclax] (first compound max 1 µM, 7x7, partner max 1 µM) | -0.0211 | -0.0419 | -0.0436 | -0.0517 | -0.0082 | -0.0464 | -0.0559 | -0.0515 | -0.0597 | -0.0187 | 0.0201 | -0.085 | -0.0416 | -0.0285 | -0.0938 | -0.0326 | – | -0.0707 | -0.0414 | -0.0559
C[C@@H](c1ccc2nccn2c1)n1nnc2ncc(-c3cnn(C)c3)nc21 [Savolitinib] + Cc1c2c(nn1C)CSCc1cc(n(C)n1)CSc1cc(c3ccccc3c1)OCCCc1c(C(=O)O)n(C)c3c-2c(Cl)ccc13 [AZD5991] (first compound max 1 µM, 7x7, partner max 1 µM) | -0.0136 | -0.0425 | -0.0452 | -0.021 | -0.0188 | -0.045 | -0.0541 | -0.0152 | -0.0279 | 0.0145 | -0.0054 | -0.0456 | -0.0523 | -0.0262 | -0.0691 | -0.0117 | – | -0.0437 | -0.0228 | -0.0256
Cn1cnc2c(F)c(Nc3ccc(Br)cc3Cl)c(C(=O)NOCCO)cc21 [Selumetinib] + C=CCn1c(=O)c2cnc(Nc3ccc(N4CCN(C)CC4)cc3)nc2n1-c1cccc(C(C)(C)O)n1 [AZD1775] (first compound max 10 µM, partner max 1 µM) | -0.0309 | -0.0846 | -0.0849 | -0.039 | -0.0248 | -0.0192 | 0.0165 | -0.0255 | -0.0647 | 0.0752 | -0.0374 | -0.0453 | -0.0654 | 0.0363 | -0.0365 | -0.122 | – | -0.0257 | -0.0831 | -0.0672
Cn1cnc2c(F)c(Nc3ccc(Br)cc3Cl)c(C(=O)NOCCO)cc21 [Selumetinib] + CC(C)n1c(=O)n(C)c2cnc3cc(F)c(-c4ccc(OCCCN5CCCCC5)nc4)cc3c21 [AZD1390] (first compound max 10 µM, 7x7, partner max 0.3 µM) | -0.0429 | -0.0201 | -0.0365 | -0.0211 | -0.0022 | -0.0463 | -0.0528 | -0.0365 | -0.0075 | -0.0345 | -0.0407 | -0.0456 | -0.0074 | -0.0251 | -0.0361 | -0.042 | – | -0.0337 | -0.033 | -0.0376
Cn1cnc2c(F)c(Nc3ccc(Br)cc3Cl)c(C(=O)NOCCO)cc21 [Selumetinib] + CCN(CCO)CCCOc1ccc2c(Nc3cc(CC(=O)Nc4cccc(F)c4)[nH]n3)ncnc2c1 [AZD2811] (first compound max 10 µM, 7x7, partner max 1 µM) | -0.0227 | -0.0216 | -0.0278 | 0.0298 | 0.0298 | -0.0317 | -0.0282 | 0.0048 | 0.0143 | 0.0352 | -0.0634 | -0.0538 | 0.0253 | 0.0264 | -0.034 | -0.0408 | – | -0.0316 | -0.0363 | -0.0409
Cn1cnc2c(F)c(Nc3ccc(Br)cc3Cl)c(C(=O)NOCCO)cc21 [Selumetinib] + C[C@@H]1COCCN1C2=NC(=NC(=C2)C3(CC3)[S@](=N)(=O)C)C4=C5C=CNC5=NC=C4 [AZD6738] (first compound max 10 µM, 7x7, partner max 10 µM) | -0.0506 | -0.0454 | -0.0351 | -0.022 | -0.0233 | -0.0316 | 0.0221 | -0.0257 | -0.0049 | -0.0116 | -0.0415 | 0.0228 | -0.0351 | -0.033 | -0.0149 | -0.0249 | – | -0.0474 | -0.0412 | 0.0286
